From BigSolDB 2.1

O=c1cc(CO)occ1O
Conditions | solubility (mole fraction)
in 1,4-dioxane, 288.15 K | 0.00698
in 1,4-dioxane, 293.15 K | 0.0086
in 1,4-dioxane, 298.15 K | 0.0103
in 1,4-dioxane, 303.15 K | 0.0121
in 1,4-dioxane, 308.15 K | 0.0153
in 1,4-dioxane, 313.15 K | 0.018
in 1,4-dioxane, 318.15 K | 0.0209
in 2-ethoxyethanol, 278.15 K | 0.0134
in 2-ethoxyethanol, 283.15 K | 0.015
in 2-ethoxyethanol, 288.15 K | 0.0177
in 2-ethoxyethanol, 293.15 K | 0.0204
in 2-ethoxyethanol, 298.15 K | 0.0233
in 2-ethoxyethanol, 303.15 K | 0.0261
in 2-ethoxyethanol, 308.15 K | 0.03
in 2-ethoxyethanol, 313.15 K | 0.034
in 2-ethoxyethanol, 318.15 K | 0.0381
in 2-ethoxyethanol, 323.15 K | 0.0435
in 2-methoxyethanol, 278.15 K | 0.0181
in 2-methoxyethanol, 283.15 K | 0.0214
in 2-methoxyethanol, 288.15 K | 0.0252
in 2-methoxyethanol, 293.15 K | 0.0287
in 2-methoxyethanol, 298.15 K | 0.0331
in 2-methoxyethanol, 303.15 K | 0.0377
in 2-methoxyethanol, 308.15 K | 0.0431
in 2-methoxyethanol, 313.15 K | 0.0491
in 2-methoxyethanol, 318.15 K | 0.0559
in 2-methoxyethanol, 323.15 K | 0.0625
in DMAc, 278.15 K | 0.148
in DMAc, 283.15 K | 0.157
in DMAc, 288.15 K | 0.165
in DMAc, 293.15 K | 0.174
in DMAc, 298.15 K | 0.184
in DMAc, 303.15 K | 0.194
in DMAc, 308.15 K | 0.205
in DMAc, 313.15 K | 0.216
in DMAc, 318.15 K | 0.228
in DMAc, 323.15 K | 0.24
in DMF, 278.15 K | 0.0977
in DMF, 283.15 K | 0.106
in DMF, 288.15 K | 0.114
in DMF, 293.15 K | 0.123
in DMF, 298.15 K | 0.135
in DMF, 303.15 K | 0.147
in DMF, 308.15 K | 0.157
in DMF, 313.15 K | 0.168
in DMF, 318.15 K | 0.18
in DMF, 323.15 K | 0.193
in DMSO, 293.15 K | 0.238
in DMSO, 298.15 K | 0.249
in DMSO, 303.15 K | 0.259
in DMSO, 308.15 K | 0.268
in DMSO, 313.15 K | 0.28
in DMSO, 318.15 K | 0.292
in DMSO, 323.15 K | 0.303
in DMSO, 328.15 K | 0.316
in DMSO, 333.15 K | 0.331
in NMP, 278.15 K | 0.17
in NMP, 283.15 K | 0.179
in NMP, 288.15 K | 0.185
in NMP, 293.15 K | 0.193
in NMP, 298.15 K | 0.201
in NMP, 303.15 K | 0.208
in NMP, 308.15 K | 0.216
in NMP, 313.15 K | 0.223
in NMP, 318.15 K | 0.232
in NMP, 323.15 K | 0.241
in acetic acid, 293.15 K | 0.0139
in acetic acid, 298.15 K | 0.0169
in acetic acid, 303.15 K | 0.0204
in acetic acid, 308.15 K | 0.0246
in acetic acid, 313.15 K | 0.0293
in acetic acid, 318.15 K | 0.0353
in acetic acid, 323.15 K | 0.0425
in acetic acid, 328.15 K | 0.0511
in acetic acid, 333.15 K | 0.0613
in acetone, 278.15 K | 0.00224
in acetone, 283.15 K | 0.00276
in acetone, 288.15 K | 0.00324
in acetone, 293.15 K | 0.00383
in acetone, 298.15 K | 0.00455
in acetone, 303.15 K | 0.00556
in acetone, 308.15 K | 0.00686
in acetone, 313.15 K | 0.008
in acetone, 318.15 K | 0.00932
in acetone, 323.15 K | 0.0106
in ethanol, 278.15 K | 0.0031
in ethanol, 283.15 K | 0.00374
in ethanol, 288.15 K | 0.00459
in ethanol, 293.15 K | 0.00595
in ethanol, 298.15 K | 0.00739
in ethanol, 303.15 K | 0.00893
in ethanol, 308.15 K | 0.0108
in ethanol, 313.15 K | 0.013
in ethanol, 318.15 K | 0.0158
in ethanol, 323.15 K | 0.0191
in ethyl acetate, 278.15 K | 0.000804
in ethyl acetate, 283.15 K | 0.00105
in ethyl acetate, 288.15 K | 0.00137
in ethyl acetate, 293.15 K | 0.00169
in ethyl acetate, 298.15 K | 0.00201
in ethyl acetate, 303.15 K | 0.00242
in ethyl acetate, 308.15 K | 0.00296
in ethyl acetate, 313.15 K | 0.00338
in ethyl acetate, 318.15 K | 0.00411
in ethyl acetate, 323.15 K | 0.00497
in methanol, 278.15 K | 0.00492
in methanol, 283.15 K | 0.00606
in methanol, 288.15 K | 0.00737
in methanol, 293.15 K | 0.00891
in methanol, 298.15 K | 0.011
in methanol, 303.15 K | 0.0132
in methanol, 308.15 K | 0.0156
in methanol, 313.15 K | 0.0189
in methanol, 318.15 K | 0.0223
in methanol, 323.15 K | 0.0267
in n-propanol, 278.15 K | 0.00225
in n-propanol, 283.15 K | 0.00281
in n-propanol, 288.15 K | 0.00339
in n-propanol, 293.15 K | 0.00423
in n-propanol, 298.15 K | 0.00524
in n-propanol, 303.15 K | 0.00646
in n-propanol, 308.15 K | 0.00782
in n-propanol, 313.15 K | 0.00964
in n-propanol, 318.15 K | 0.0116
in n-propanol, 323.15 K | 0.0139
in water, 278.15 K | 0.00216
in water, 283.15 K | 0.00276
in water, 288.15 K | 0.00353
in water, 293.15 K | 0.0043
in water, 298.15 K | 0.00553
in water, 303.15 K | 0.00679
in water, 308.15 K | 0.00873
in water, 313.15 K | 0.0113
in water, 318.15 K | 0.0143
in water, 323.15 K | 0.0185
